# Source: patent US8153589B2, “JNK3 as a target for the treatment of angiogenesis-related diseases” (The University of North Carolina at Chapel Hill, priority 2009, dated 2012)
# Tests used:
# JNK3 = test: JNK activation (phospho-JNK Western blot) in BAECs; type: cell-based, bovine; details: BAECs
# Protocol: (§1) Cells were harvested in lysis buffer (1% Triton X-100, 50 mM Tris, pH 7.4, 150 mM NaCl, 1 mM Na3VO4 and 0.1% protease inhibitor tablet; Roche) and clarified by centrifugation at 16,000 g. Equal amounts of proteins were incubated with a specific antibody overnight at 4° C. with gentle rotation. Protein A/G Plus-agarose beads (Santa Cruz Biotechnology, Santa Cruz, Calif.) were used to pull down the antibody complexes. Afterward, beads were washed with lysis buffer, and immune complexes were separated by SDS-PAGE. Total cell lysates were separated by SDS-PAGE and transferred to nitrocellulose membranes.
# Mitogen-activated protein kinases (MAPKs), including ERK1/2 and p38, have been reported to enhance angiogenesis (20, 21). However, the role of JNK in angiogenesis remains controversial, with studies showing both positive and negative outcomes of JNK activation. In order to determine which MAPKs are involved in SDF-1α-induced endothelial cell migration, we screened the activities and expression levels of ERK1/2, p38 and JNK following treatment of BAECs with SDF-1α. […] SDF-1α activated both JNK and ERK1/2 in a dose-dependent manner (FIG. 2B). […] Protein and mRNA for all three JNK isoforms, JNK1, JNK2 and JNK3, can be found in BAECs (FIGS. 5, A&B). In order to determine which JNK protein(s) was activated by SDF-1α in these cells we used a previously described assay (22). Exogenous JNK1, JNK2 and JNK3 proteins containing Flag or GFP-epitopes were transiently expressed in BAECs and their activities were determined via western blotting with a phospho-JNK antibody following SDF-1α treatment. […] To confirm the finding that JNK3 is the only JNK entity activated by SDF-1α, we transfected cells with siRNAs for each of the JNK proteins and then tested the effect of each siRNA for the ability to suppress SDF-1α-induced JNK activation. […] Because JNK3 was the only SDF-1α-activated JNK in endothelial cells in our studies (FIG. 2C & FIG. 5, C), we consider the phospho-JNK signals in western blots with anti-phospho-JNK antibody as the signals for activated JNK3.
# p38 = p38 activation, Western blot in BAECs; type: cell-based, bovine; details: SDF-1α treatment
# Protocol: as §1
# Mitogen-activated protein kinases (MAPKs), including ERK1/2 and p38, have been reported to enhance angiogenesis (20, 21). However, the role of JNK in angiogenesis remains controversial, with studies showing both positive and negative outcomes of JNK activation. In order to determine which MAPKs are involved in SDF-1α-induced endothelial cell migration, we screened the activities and expression levels of ERK1/2, p38 and JNK following treatment of BAECs with SDF-1α. […] SDF-1α activated both JNK and ERK1/2 in a dose-dependent manner (FIG. 2B). […] Exogenous JNK1, JNK2 and JNK3 proteins containing Flag or GFP-epitopes were transiently expressed in BAECs and their activities were determined via western blotting with a phospho-JNK antibody following SDF-1α treatment. […]
# MKP7 = test: Biotin switch assay, MKP7 nitrosylation in BAECs transfected with Flag-MKP7; type: cell-based; details: 50 ng/ml SDF-1alpha for 5 minutes
# Protocol: Experiments were performed following the methods previously described by Dr. Stamler's laboratory (39). Cell lysates containing Flag or Myc-tagged MKP7 protein were treated with the indicated concentrations of GSNO followed by the addition of 2 volumes of HEN buffer and freshly prepared S-methyl methanethiosulfonate (10% v/v in N,N-dimethylformamide) and SDS (25% v/v) to final concentrations of 0.1 and 2.5%, respectively. Following frequent vortexing at 50° C. for 1 hour, proteins were precipitated with 3 volumes of acetone at −20° C. for 30 min. The proteins were recovered by centrifugation at 5,000×g for 5 min, followed by gentle rinsing of the pellet with 3×1 ml acetone. The pellets were then resuspended in 240 μl of HEN buffer containing 1% SDS. The resuspended protein was precipitated, rinsed and resuspended once more. For labeling, the blocked samples were mixed with 0.1 volume of biotin-HPDP (2.5 mg/ml in Me2SO) and 0.1 volume of HEN (control) or freshly prepared sodium Ascorbic acid in HEN buffer. […] The eluted mixture was then analyzed by SDS-PAGE, followed by immunoblotting with anti-Flag-HRP (1:5000) or antibodies.
# As a first step, we investigated whether SDF-1α treatment of BAECs would result in S-nitrosylation of MKP7. […] Next we used JNK3 phosphorylation as a readout for determining whether or not SDF-1α activation of JNK3 could be inhibited by MKP7. […]
substance,measurement,setting,value
SDF-1α,"phosphorylation of exogenous Flag/GFP-tagged JNK1, JNK2, JNK3",JNK3; 50 ng/ml SDF-1alpha for 5 minutes,only phosphorylation of JNK3 (but not JNK1 or JNK2) was increased
same,JNK activity,JNK3; SDF-1α 50 ng/ml,potently induced
same,p38 activation,p38,not significantly activated
same,MKP7 nitrosylation in BAECs,MKP7,increased
